Results published in the supplement of paper PMC10307832.

Legend:
Assay in all cases: relative viability (nuclei count vs DMSO), 5 days (fraction); higher = more cells survive
Carboplatin + Alpelisib = compound: C1CC(C1)(C(=O)O)C(=O)O.[NH2-].[NH2-].[Pt+2] [Carboplatin] + Cc1nc(NC(=O)N2CCC[C@H]2C(N)=O)sc1-c1ccnc(C(C)(C)C(F)(F)F)c1 [Alpelisib] (partner 2 µM)
Method in brief: (§1)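 Cells from lung cancer lines were seeded into 1536-well plates and, one day later, dosed by pin tool. Treatments were either a single drug or a fixed dose of an anchor drug with five library-drug doses (not always all listed) in √10 steps. After 5 days, nuclei were stained in a one-step fixation (final 0.05% Triton X-100, 1% formaldehyde, 1 ug/ml Hoechst) and counted on 4× images, and relative viability is the treated-to-vehicle nuclei ratio, as the median of duplicate plates.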

Carboplatin + Dasatinib = compound: C1CC(C1)(C(=O)O)C(=O)O.[NH2-].[NH2-].[Pt+2] [Carboplatin] + Cc1nc(Nc2ncc(C(=O)Nc3c(C)cccc3Cl)s2)cc(N2CCN(CCO)CC2)n1 [Dasatinib] (partner 0.075 µM)
Method in brief: as §1

GSK126 + OSI-027 = compound: CC[C@H](C)N1C=C(C2=C(C=C(C=C21)C3=CN=C(C=C3)N4CCNCC4)C(=O)NCC5=C(C=C(NC5=O)C)C)C [GSK126] + COc1cccc2cc(-c3nc([C@H]4CC[C@H](C(=O)O)CC4)n4ncnc(N)c34)[nH]c12 [OSI-027] (partner 0.5 µM)
Method in brief: as §1

GSK126 + Pemetrexed = compound: CC[C@H](C)N1C=C(C2=C(C=C(C=C21)C3=CN=C(C=C3)N4CCNCC4)C(=O)NCC5=C(C=C(NC5=O)C)C)C [GSK126] + Nc1nc2[nH]cc(CCc3ccc(C(=O)N[C@@H](CCC(=O)O)C(=O)O)cc3)c2c(=O)[nH]1 [Pemetrexed] (partner 0.2 µM)
Method in brief: as §1

Cell Line	relative viability (Carboplatin + Alpelisib; first compound 0.08 µM)	relative viability (Carboplatin + Alpelisib; first compound 0.253 µM)	relative viability (Carboplatin + Alpelisib; first compound 0.8 µM)	relative viability (Carboplatin + Alpelisib; first compound 2.53 µM)	relative viability (Carboplatin + Alpelisib; first compound 8 µM)	relative viability (Carboplatin + Dasatinib; first compound 0.08 µM)	relative viability (Carboplatin + Dasatinib; first compound 0.253 µM)	relative viability (Carboplatin + Dasatinib; first compound 0.8 µM)	relative viability (Carboplatin + Dasatinib; first compound 2.53 µM)	relative viability (Carboplatin + Dasatinib; first compound 8 µM)	relative viability (GSK126 + OSI-027; first compound 0.08 µM)	relative viability (GSK126 + OSI-027; first compound 0.253 µM)	relative viability (GSK126 + OSI-027; first compound 0.8 µM)	relative viability (GSK126 + OSI-027; first compound 2.53 µM)	relative viability (GSK126 + OSI-027; first compound 8 µM)	relative viability (GSK126 + Pemetrexed; first compound 0.08 µM)	relative viability (GSK126 + Pemetrexed; first compound 0.253 µM)	relative viability (GSK126 + Pemetrexed; first compound 0.8 µM)	relative viability (GSK126 + Pemetrexed; first compound 2.53 µM)	relative viability (GSK126 + Pemetrexed; first compound 8 µM)
ABC-1	1.04	1.16	1.04	0.919	0.664	0.654	0.639	0.522	0.546	0.458	0.462	0.525	0.532	0.492	0.539					
NCI-H1650						0.31	0.357	0.321	0.273	0.299	0.834	0.594	0.703	0.684	0.681	0.393	0.437	0.39	0.302	0.344
HCC-44	0.904	0.887	0.733	0.717	0.635						0.623	0.624	0.595	0.562	0.706	0.65	0.712	0.581	0.602	0.551
NCI-H522						0.751	0.88	0.859	0.911	0.886	0.651	0.731	0.779	0.638	0.686	1.02	0.772	0.95	0.865	1.06
IA-LM	0.995	0.904	0.669	0.881	0.465															
NCI-H1623						0.583	0.553	0.57	0.506	0.469	0.414	0.473	0.425	0.504	0.401					
NCI-H727	0.76	0.483	0.509	0.514	0.363	0.472	0.356	0.374	0.364	0.376	0.653	0.686	0.599	0.603	0.627					
